{"source": "patent US9464058B2", "about": "(Hoffmann-La Roche Inc., priority 2012, dated 2016)", "key": {"[1]": {"target": "T1, human CYP11B1 (Homo sapiens, UniProt P15538)", "T1 construct": "expressed in transfected cells", "T1 sequence (P15538 25-503)": "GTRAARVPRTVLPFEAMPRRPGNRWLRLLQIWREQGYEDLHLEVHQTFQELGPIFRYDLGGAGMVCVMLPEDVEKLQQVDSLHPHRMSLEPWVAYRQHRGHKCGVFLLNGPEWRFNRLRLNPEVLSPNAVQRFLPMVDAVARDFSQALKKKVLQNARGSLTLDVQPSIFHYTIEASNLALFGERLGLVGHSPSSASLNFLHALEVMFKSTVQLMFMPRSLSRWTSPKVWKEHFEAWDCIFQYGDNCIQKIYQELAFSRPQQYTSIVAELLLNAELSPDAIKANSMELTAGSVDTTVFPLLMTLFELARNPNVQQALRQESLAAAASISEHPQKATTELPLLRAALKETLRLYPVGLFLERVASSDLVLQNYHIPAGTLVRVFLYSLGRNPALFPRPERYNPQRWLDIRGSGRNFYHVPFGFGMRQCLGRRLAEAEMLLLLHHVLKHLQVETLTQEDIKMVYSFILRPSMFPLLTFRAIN", "assay": "G-402 cellular enzyme assay, human CYP11B1 (cortisol release, HTRF)", "format": "cell-based", "conditions": "G-402 cells expressing human CYP11B1; 1 μM Deoxycortisol; 16 h", "excerpt": "(§1) Herein we identified the use of the G-402 cell line as a host cell to ectopically express (transiently or stably) enzymes of the CYP11 family. Specifically we developed stable G-402 cells expressing ectopically human CYP11B1, human CYP11B2, human CYP11A1, cynomolgus CYP11B1 or cynomolgus CYP11B2 enzyme activity. Importantly, the identified cell line G-402 expresses co-factors (adrenodoxin and adrenodoxin reductase) important for the activity of the CYP11 family, and no relevant enzyme activity of the CYP11 family (in comparison to H295R cells) was detected in these cells. Therefore the G-402 cell line is uniquely suited as a host cell for the ectopic expression of enzymes from the CYP11 family.\n(§2) G-402 cells can be obtained from ATCC(CRL-1440) and were originally derived from a renal leiomyoblastoma.\n(§3) The expression plasmids contains the ORF for either human/cyno CYP11B1 or CYP11B2 under the control of a suitable promoter (CMV-promoter) and a suitable resistance marker (neomycin). Using standard techniques the expression plasmid is transfected into G-402 cells and these cells are then selected for expressing the given resistance markers. Individual cell-clones are then selected and assessed for displaying the desired enzymatic activity using 11-Deoxycorticosterone (Cyp11B2) or 11-Deoxycortisol (Cyp11B1) as a substrate.\n(§4) G-402 cells expressing CYP11 constructs were established as described above and maintained in McCoy's 5a Medium Modified, ATCC Catalog No. 30-2007 containing 10% FCS and 400 μg/ml G418 (Geneticin) at 37° C. under an atmosphere of 5% CO2/95% air. Cellular enzyme assays were performed in DMEM/F12 medium containing 2.5% charcoal treated FCS and appropriate concentration of substrate (0.3-10 uM 11-Deoxycorticosterone, 11-Deoxycortisol or Corticosterone). For assaying enzymatic activity, cells were plated onto 96 well plates and incubated for 16 h. An aliquot of the supernatant is then transferred and analyzed for the concentration of the expected product (Aldosterone for CYP11B2; Cortisol for CYP11B1). The concentrations of these steroids can be determined using HTRF assays from CisBio analyzing either Aldosterone or Cortisol.\n(§5) Inhibition of the release of produced steroids can be used as a measure of the respective enzyme inhibition by test compounds added during the cellular enzyme assay. The dose dependent inhibition of enzymatic activity by a compound is calculated by means of plotting added inhibitor concentrations (x-axes) vs. measured steroid/product level (y-axes). The inhibition is then calculated by fitting the following 4-parameter sigmoidal function (Morgan-Mercer-Flodin (MMF) model) to the raw data points using the least squares method:\n(§6) [formula] wherein A is the maximum y value, B is the EC50 factor determined using XLFit, C is the minimum y value and D is the slope value.\n(§7) EC50 values for compounds claimed herein were tested with the G402-based assay system described. Cyp11B2 enzyme activity was tested in presence of 1 μM Deoxycorticosterone and variable amounts of inhibitors; Cyp11B1 enzyme activity was tested in presence of 1 μM Deoxycortisol and variable amounts of inhibitors."}, "[2]": {"target": "T2, human CYP11B2 (Homo sapiens, UniProt P19099)", "T2 construct": "expressed in transfected cells", "T2 sequence (P19099 25-503)": "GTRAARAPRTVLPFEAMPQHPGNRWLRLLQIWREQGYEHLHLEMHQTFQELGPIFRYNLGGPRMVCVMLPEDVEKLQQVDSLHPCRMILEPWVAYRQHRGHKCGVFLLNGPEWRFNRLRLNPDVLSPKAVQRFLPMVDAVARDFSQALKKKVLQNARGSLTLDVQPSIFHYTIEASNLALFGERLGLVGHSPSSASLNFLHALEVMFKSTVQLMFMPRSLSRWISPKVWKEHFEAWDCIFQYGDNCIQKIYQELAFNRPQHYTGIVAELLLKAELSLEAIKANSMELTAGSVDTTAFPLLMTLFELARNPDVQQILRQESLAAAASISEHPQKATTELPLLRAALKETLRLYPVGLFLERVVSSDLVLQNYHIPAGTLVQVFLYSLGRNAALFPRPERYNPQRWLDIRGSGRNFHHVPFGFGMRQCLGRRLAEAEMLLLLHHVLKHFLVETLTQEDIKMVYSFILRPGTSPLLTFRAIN", "assay": "G-402 cellular enzyme assay, human CYP11B2 (aldosterone release, HTRF)", "format": "cell-based", "conditions": "G-402 cells expressing human CYP11B2; 1 μM Deoxycorticosterone; 16 h", "excerpt": "as §1, §2, §3, §4, §5, §6, §7"}}, "note": "pEC50: −log10 of the molar value.", "data": [{"smiles": "COc1cc(C(=O)c2cncn2C)ccc1SC", "note": "[Example 50, (3-Methoxy-4-methylsulfanyl-phenyl)-(3-methyl-3H-imidazol-4-yl)-methanone]", "values": [{"measurement": "pEC50", "setting": "[1]", "value": 6.16}, {"measurement": "pEC50", "setting": "[2]", "value": 7.83}]}, {"smiles": "CCSc1ccc(C(=O)c2cncn2C)cc1", "note": "[Example 51, (4-Ethylsulfanyl-phenyl)-(3-methyl-3H-imidazol-4-yl)-methanone]", "values": [{"measurement": "pEC50", "setting": "[1]", "value": 5.49}, {"measurement": "pEC50", "setting": "[2]", "value": 6.99}]}, {"smiles": "C#Cc1ccc(C(=O)c2cncn2C(C)C)cc1", "note": "[Example 54, (4-Ethynyl-phenyl)-(3-isopropyl-3H-imidazol-4-yl)-methanone]", "values": [{"measurement": "pEC50", "setting": "[1]", "value": 8.17}, {"measurement": "pEC50", "setting": "[2]", "value": 9.30}]}, {"smiles": "CCn1cncc1C(=O)c1cccc(C#N)c1", "note": "[Example 56, 3-(3-Ethyl-3H-imidazole-4-carbonyl)-benzonitrile]", "values": [{"measurement": "pEC50", "setting": "[1]", "value": 5.92}, {"measurement": "pEC50", "setting": "[2]", "value": 6.96}]}, {"smiles": "CC(C)n1cncc1C(=O)c1cccc(C#N)c1", "note": "[Example 57, 3-(3-Isopropyl-3H-imidazole-4-carbonyl)-benzonitrile]", "values": [{"measurement": "pEC50", "setting": "[1]", "value": 6.69}, {"measurement": "pEC50", "setting": "[2]", "value": 7.59}]}, {"smiles": "N#Cc1cccc(C(=O)c2cncn2C2CC2)c1", "note": "[Example 58, 3-(3-Cyclopropyl-3H-imidazole-4-carbonyl)-benzonitrile]", "values": [{"measurement": "pEC50", "setting": "[1]", "value": 6.05}, {"measurement": "pEC50", "setting": "[2]", "value": 7.06}]}, {"smiles": "CC(=O)N(C)c1ccc(C(=O)c2cncn2C(C)C)cc1", "note": "[Example 59, N-[4-(3-Isopropyl-3H-imidazole-4-carbonyl)-phenyl]-N-methyl-acetamide]", "values": [{"measurement": "pEC50", "setting": "[1]", "value": 5.30}, {"measurement": "pEC50", "setting": "[2]", "value": 7.29}]}, {"smiles": "CCn1cncc1C(=O)c1ccc(SC)c(OC)c1", "note": "[Example 60, (3-Ethyl-3H-imidazol-4-yl)-(3-methoxy-4-methylsulfanyl-phenyl)-methanone]", "values": [{"measurement": "pEC50", "setting": "[1]", "value": 7.07}, {"measurement": "pEC50", "setting": "[2]", "value": 8.40}]}, {"smiles": "COc1cc(C(=O)c2cncn2C(C)C)ccc1SC", "note": "[Example 61, (3-Isopropyl-3H-imidazol-4-yl)-(3-methoxy-4-methylsulfanyl-phenyl)-methanone]", "values": [{"measurement": "pEC50", "setting": "[1]", "value": 8.06}, {"measurement": "pEC50", "setting": "[2]", "value": 9.70}]}, {"smiles": "COc1cc(C(=O)c2cncn2C2CC2)ccc1SC", "note": "[Example 62, (3-Cyclopropyl-3H-imidazol-4-yl)-(3-methoxy-4-methylsulfanyl-phenyl)-methanone]", "values": [{"measurement": "pEC50", "setting": "[1]", "value": 7.34}, {"measurement": "pEC50", "setting": "[2]", "value": 8.55}]}, {"smiles": "CCn1cncc1C(=O)c1ccc(F)c(C#N)c1", "note": "[Example 63, 5-(3-Ethyl-3H-imidazole-4-carbonyl)-2-fluoro-benzonitrile]", "values": [{"measurement": "pEC50", "setting": "[1]", "value": 5.46}, {"measurement": "pEC50", "setting": "[2]", "value": 6.47}]}, {"smiles": "CC(C)n1cncc1C(=O)c1ccc(F)c(C#N)c1", "note": "[Example 64, 2-Fluoro-5-(3-isopropyl-3H-imidazole-4-carbonyl)-benzonitrile]", "values": [{"measurement": "pEC50", "setting": "[1]", "value": 6.35}, {"measurement": "pEC50", "setting": "[2]", "value": 6.49}]}, {"smiles": "CCC(C)n1cncc1C(=O)c1ccc(F)c(C#N)c1", "note": "(centres unmarked) [Example 65, 5-(3-sec-Butyl-3H-imidazole-4-carbonyl)-2-fluoro-benzonitrile]", "values": [{"measurement": "pEC50", "setting": "[1]", "value": 7.05}, {"measurement": "pEC50", "setting": "[2]", "value": 7.67}]}, {"smiles": "N#Cc1cc(C(=O)c2cncn2C2CC2)ccc1F", "note": "[Example 66, 5-(3-Cyclopropyl-3H-imidazole-4-carbonyl)-2-fluoro-benzonitrile]", "values": [{"measurement": "pEC50", "setting": "[1]", "value": 5.65}, {"measurement": "pEC50", "setting": "[2]", "value": 6.35}]}, {"smiles": "CCn1cncc1C(=O)c1ccc(N(C)C(C)=O)cc1", "note": "[Example 67, N-[4-(3-Ethyl-3H-imidazole-4-carbonyl)-phenyl]-N-methyl-acetamide]", "values": [{"measurement": "pEC50", "setting": "[1]", "value": 5.00}, {"measurement": "pEC50", "setting": "[2]", "value": 6.54}]}, {"smiles": "Cn1cncc1C(=O)c1ccc(Br)cc1", "note": "[Example 68, (4-Bromo-phenyl)-(3-methyl-3H-imidazol-4-yl)-methanone]", "values": [{"measurement": "pEC50", "setting": "[1]", "value": 6.31}, {"measurement": "pEC50", "setting": "[2]", "value": 7.73}]}, {"smiles": "CCSc1ccc(C(=O)c2cncn2CC)cc1", "note": "[Example 69, (3-Ethyl-3H-imidazol-4-yl)-(4-ethylsulfanyl-phenyl)-methanone]", "values": [{"measurement": "pEC50", "setting": "[1]", "value": 6.48}, {"measurement": "pEC50", "setting": "[2]", "value": 7.07}]}, {"smiles": "CCSc1ccc(C(=O)c2cncn2C2CC2)cc1", "note": "[Example 70, (3-Cyclopropyl-3H-imidazol-4-yl)-(4-ethylsulfanyl-phenyl)-methanone]", "values": [{"measurement": "pEC50", "setting": "[1]", "value": 6.44}, {"measurement": "pEC50", "setting": "[2]", "value": 7.64}]}, {"smiles": "CCSc1ccc(C(=O)c2cncn2C(C)C)cc1", "note": "[Example 71, (4-Ethylsulfanyl-phenyl)-(3-isopropyl-3H-imidazol-4-yl)-methanone]", "values": [{"measurement": "pEC50", "setting": "[1]", "value": 6.60}, {"measurement": "pEC50", "setting": "[2]", "value": 8.28}]}]}
